# Patent US20150105252A1, “SUBSTITUTED PYRAZOLES AS HERBICIDES” (E I DU PONT DE NEMOURS AND COMPANY, priority 2013, published 2015)
# How the values were obtained:
# [1] = system: morningglory; assay: Test C postemergence; type: in vivo, Ipomoea coccinea; conditions: for Plant response rating (scale of 0 to 100 where 0 is no effect and 100 is complete control), Morningglory: Postemergence, 31 g ai/ha, visually evaluated after 13 to 15 days; for Morningglory plant response rating / Plant response rating, Morningglory: postemergence; for Morningglory plant response rating: 62 g ai/ha, scale 0 to 100
# In short: (§1)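 Pre- and postemergence greenhouse screen; vehicle was a non-phytotoxic solvent mix with surfactant. Preemergence: treatment applied right after sowing into loam and sand. Postemergence: treated at 1–4 leaves. Visual rating at 13–15 days, 100 = complete control.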
# [2] = system: galium; assay: Test C postemergence; type: in vivo, Galium aparine; conditions: for Plant response rating (scale of 0 to 100 where 0 is no effect and 100 is complete control), Galium: Postemergence, 31 g ai/ha, visually evaluated after 13 to 15 days; for Galium plant response rating / Plant response rating, Galium: postemergence; for Galium plant response rating: 62 g ai/ha, scale 0 to 100
# In short: as §1
# [3] = system: soybean; assay: Test C preemergence; type: in vivo, Glycine max; conditions: preemergence; for Plant response rating, Soybean: 125 g ai/ha, scale 0 to 100, 0 = no effect, 100 = complete control
# In short: as §1
# [4] = system: corn; assay: Test A postemergence; type: in vivo, Zea mays
# In short: (§2)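 After sowing in a sand–loam mix, pots received compound preemergence by directed soil spray, or postemergence once plants reached the one- to two-leaf stage (2–10 cm). Formulation contained surfactant in a non-phytotoxic solvent. Injury was scored visually after ~10 greenhouse days, 0–100 scale.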
# [5] = system: corn; assay: Test C preemergence; type: in vivo, Zea mays; conditions: preemergence; for Plant response rating, Corn: 125 g ai/ha, scale 0 to 100, 0 = no effect, 100 = complete control
# In short: as §1
# [6] = system: wheat; assay: Test C postemergence; type: in vivo, Triticum aestivum; conditions: postemergence; for Plant response rating, Wheat: 250 g ai/ha, scale 0 to 100 (0 no effect, 100 complete control); for Wheat plant response rating: scale 0 to 100
# In short: as §1
# [7] = system: foxtail, giant; assay: Test A postemergence; type: in vivo, Setaria faberii
# In short: as §2
# [8] = system: galium; assay: Test C preemergence; type: in vivo, Galium aparine; conditions: preemergence; for Plant response rating, Galium: 125 g ai/ha, scale 0 to 100, 0 = no effect, 100 = complete control
# In short: as §1
# [9] = system: barnyardgrass; assay: Test C postemergence; type: in vivo, Echinochloa crus-galli; conditions: for Plant response rating (scale of 0 to 100 where 0 is no effect and 100 is complete control), Barnyardgrass: Postemergence, 31 g ai/ha, visually evaluated after 13 to 15 days; for Barnyardgrass plant response rating / Plant response rating, Barnyardgrass: postemergence; for Barnyardgrass plant response rating: 62 g ai/ha, scale 0 to 100
# In short: as §1
# [10] = system: foxtail, giant; assay: Test C preemergence; type: in vivo, Setaria faberii; conditions: preemergence; for Plant response rating, Foxtail, Giant: 125 g ai/ha, scale 0 to 100, 0 = no effect, 100 = complete control
# In short: as §1
# [11] = system: kochia; assay: Test C postemergence; type: in vivo, Kochia scoparia; conditions: for Plant response rating (scale of 0 to 100 where 0 is no effect and 100 is complete control), Kochia: Postemergence, 31 g ai/ha, visually evaluated after 13 to 15 days; for Kochia plant response rating / Plant response rating, Kochia: postemergence; for Kochia plant response rating: 62 g ai/ha, scale 0 to 100
# In short: as §1
# [12] = system: waterhemp; assay: Test C preemergence; type: in vivo, Amaranthus rudis; conditions: preemergence; for Plant response rating, Waterhemp: 125 g ai/ha, scale 0 to 100, 0 = no effect, 100 = complete control
# In short: as §1
# [13] = system: foxtail, giant; assay: Test C postemergence; type: in vivo, Setaria faberii; conditions: for Plant response rating (scale of 0 to 100 where 0 is no effect and 100 is complete control), Foxtail, Giant: Postemergence, 31 g ai/ha, visually evaluated after 13 to 15 days; for Foxtail, Giant plant response rating / Plant response rating, Foxtail, Giant: postemergence; for Foxtail, Giant plant response rating: 62 g ai/ha, scale 0 to 100
# In short: as §1
# [14] = system: velvetleaf; assay: Test C postemergence; type: in vivo, Abutilon theophrasti; conditions: postemergence; for Plant response rating, Velvetleaf: 250 g ai/ha, scale 0 to 100 (0 no effect, 100 complete control); for Velvetleaf plant response rating: scale 0 to 100
# In short: as §1
# [15] = system: velvetleaf; assay: Test A postemergence; type: in vivo, Abutilon theophrasti; conditions: Postemergence
# In short: as §2
# [16] = system: wheat; assay: Test A postemergence; type: in vivo, Triticum aestivum; conditions: Postemergence
# In short: as §2
# [17] = 250 g ai/ha, scale 0 to 100 (0 no effect, 100 complete control)
# [18] = 125 g ai/ha, scale 0 to 100, 0 no effect, 100 complete control
# [19] = 31 g ai/ha, visual rating, scale 0 to 100 (0 no effect, 100 complete control), 13 to 15 days
# [20] = 62 g ai/ha, scale 0 to 100 (0 no effect, 100 complete control), 13 to 15 days
# [21] = 250 g ai/ha, scale 0 to 100, 0 is no effect, 100 is complete control
# [22] = Postemergence, 500 g ai/ha, 0 to 100 scale (0 no effect, 100 complete control)
# [23] = postemergence, 125 g ai/ha, about 10 days, visual rating on 0 to 100 scale (0 no effect, 100 complete control)
# [24] = 125 g ai/ha, 0 to 100 scale, 0 no effect, 100 complete control
# [25] = 500 g ai/ha, 0 to 100 scale (0 no effect, 100 complete control)
structure (smiles),measurement,setting,value
CCCc1cc(C(=O)NC(C)C)nn1Cc1cc(C(F)(F)F)nn1C [Compound 201],"Plant response rating (scale of 0 to 100 where 0 is no effect and 100 is complete control), Morningglory",[1],80
same,Morningglory plant response rating,[1],95
same,"Plant response rating, Morningglory",[1]; [17],98
same,"Plant response rating, Morningglory",[1]; [18],85
same,"Plant response rating (scale of 0 to 100 where 0 is no effect and 100 is complete control), Galium",[2],60
same,Galium plant response rating,[2],80
same,"Plant response rating, Galium",[2]; [17],95
same,"Plant response rating, Galium",[2]; [18],60
same,Soybean plant response rating,[3]; [19],70
same,Soybean plant response rating,[3]; [20],85
same,"Plant response rating, Soybean",[3]; 13 to 15 days,95
same,Soybean plant response rating,[3]; [21],98
same,Corn plant response rating,[4]; [22],100
same,Corn plant response rating,[4]; [23],90
same,Corn plant response rating,[5]; [19],40
same,Corn plant response rating,[5]; [20],60
same,"Plant response rating, Corn",[5]; 13 to 15 days,70
same,Corn plant response rating,[5]; [21],95
same,"Plant response rating, Wheat",[6],10
same,Wheat plant response rating,[6],5
same,"Foxtail, Giant plant response rating",[7]; [22],100
same,"Foxtail, Giant plant response rating",[7]; [23],90
same,Galium plant response rating,[8]; [19],95
same,Galium plant response rating,[8]; [20],95
same,"Plant response rating, Galium",[8]; 13 to 15 days,98
same,Galium plant response rating,[8]; [21],100
same,"Plant response rating (scale of 0 to 100 where 0 is no effect and 100 is complete control), Barnyardgrass",[9],5
same,Barnyardgrass plant response rating,[9],10
same,"Plant response rating, Barnyardgrass",[9]; [17],60
same,"Plant response rating, Barnyardgrass",[9]; [18],35
same,"Foxtail, Giant plant response rating",[10]; [19],100
same,"Foxtail, Giant plant response rating",[10]; [20],95
same,"Plant response rating, Foxtail, Giant",[10]; 13 to 15 days,100
same,"Foxtail, Giant plant response rating",[10]; [21],100
same,"Plant response rating (scale of 0 to 100 where 0 is no effect and 100 is complete control), Kochia",[11],85
same,Kochia plant response rating,[11],85
same,"Plant response rating, Kochia",[11]; [17],90
same,"Plant response rating, Kochia",[11]; [18],90
same,Waterhemp plant response rating,[12]; [19],100
same,Waterhemp plant response rating,[12]; [20],100
same,"Plant response rating, Waterhemp",[12]; 13 to 15 days,98
same,Waterhemp plant response rating,[12]; [21],98
same,"Plant response rating (scale of 0 to 100 where 0 is no effect and 100 is complete control), Foxtail, Giant",[13],10
same,"Foxtail, Giant plant response rating",[13],10
same,"Plant response rating, Foxtail, Giant",[13]; [17],85
same,"Plant response rating, Foxtail, Giant",[13]; [18],30
same,"Plant response rating, Velvetleaf",[14],80
same,Velvetleaf plant response rating,[14],60
same,Velvetleaf plant response rating,[15]; [24],70
same,Velvetleaf plant response rating,[15]; [25],100
same,Wheat plant response rating,[16]; [24],90
same,Wheat plant response rating,[16]; [25],100
CCCc1cc(C(=O)NC2CC2)nn1Cc1cc(C(F)(F)F)nn1C [Compound 202],"Plant response rating (scale of 0 to 100 where 0 is no effect and 100 is complete control), Morningglory",[1],35
same,Morningglory plant response rating,[1],40
same,"Plant response rating, Morningglory",[1]; [17],98
same,"Plant response rating, Morningglory",[1]; [18],90
same,"Plant response rating (scale of 0 to 100 where 0 is no effect and 100 is complete control), Galium",[2],65
same,Galium plant response rating,[2],85
same,"Plant response rating, Galium",[2]; [17],95
same,"Plant response rating, Galium",[2]; [18],90
same,Soybean plant response rating,[3]; [19],65
same,Soybean plant response rating,[3]; [20],70
same,"Plant response rating, Soybean",[3]; 13 to 15 days,85
same,Soybean plant response rating,[3]; [21],98
same,Corn plant response rating,[4]; [22],90
same,Corn plant response rating,[4]; [23],80
same,Corn plant response rating,[5]; [19],5
same,Corn plant response rating,[5]; [20],35
same,"Plant response rating, Corn",[5]; 13 to 15 days,60
same,Corn plant response rating,[5]; [21],95
same,"Plant response rating, Wheat",[6],5
same,Wheat plant response rating,[6],5
same,"Foxtail, Giant plant response rating",[7]; [22],90
same,"Foxtail, Giant plant response rating",[7]; [23],90
same,Galium plant response rating,[8]; [19],98
same,Galium plant response rating,[8]; [20],100
same,"Plant response rating, Galium",[8]; 13 to 15 days,100
same,Galium plant response rating,[8]; [21],100
same,"Plant response rating (scale of 0 to 100 where 0 is no effect and 100 is complete control), Barnyardgrass",[9],10
same,Barnyardgrass plant response rating,[9],10
same,"Plant response rating, Barnyardgrass",[9]; [17],25
same,"Plant response rating, Barnyardgrass",[9]; [18],15
same,"Foxtail, Giant plant response rating",[10]; [19],100
same,"Foxtail, Giant plant response rating",[10]; [20],100
same,"Plant response rating, Foxtail, Giant",[10]; 13 to 15 days,100
same,"Foxtail, Giant plant response rating",[10]; [21],100
same,"Plant response rating (scale of 0 to 100 where 0 is no effect and 100 is complete control), Kochia",[11],85
same,Kochia plant response rating,[11],90
same,"Plant response rating, Kochia",[11]; [17],90
same,"Plant response rating, Kochia",[11]; [18],90
same,Waterhemp plant response rating,[12]; [19],100
same,Waterhemp plant response rating,[12]; [20],100
same,"Plant response rating, Waterhemp",[12]; 13 to 15 days,100
same,Waterhemp plant response rating,[12]; [21],100
same,"Plant response rating (scale of 0 to 100 where 0 is no effect and 100 is complete control), Foxtail, Giant",[13],5
same,"Foxtail, Giant plant response rating",[13],10
same,"Plant response rating, Foxtail, Giant",[13]; [17],35
same,"Plant response rating, Foxtail, Giant",[13]; [18],10
same,"Plant response rating, Velvetleaf",[14],65
same,Velvetleaf plant response rating,[14],40
same,Velvetleaf plant response rating,[15]; [24],70
same,Velvetleaf plant response rating,[15]; [25],90
same,Wheat plant response rating,[16]; [24],60
same,Wheat plant response rating,[16]; [25],80
